Molecular target: T1, TACE (ADAM17) (Homo sapiens, UniProt P78536)
T1 construct: made in house; host or cells: mammalian cells or insect cells
Test: TACE (ADAM17) inhibition test
Assay type: biochemical
Settings: fluorescent synthetic substrate, 37° C. for 1.5 hours; read-out: TACE IC50
Excerpt: The nucleotide sequence of TACE has been reported by Moss et al. (Moss, M. L. et al., Nature 1997, vol. 385, pp. 733-736). Based on this information, the cDNA of TACE was obtained according to the prescribed method from THP-1 cells or the like, and then incorporated the cDNA into an expression vector. Next, this vector was transformed into mammalian cells or insect cells, and TACE protein was expressed. The TACE protein was isolated, and used as an enzyme. Further, a fluorescent synthetic substrate Nma(N-methylanthranilic acid)-Leu-Ala-Gln-Ala-Val-Arg-Ser-Ser-Lys(Dnp(dinitrophenyl))-D-Arg-NH2 including the TACE-cleaved sequence of a membrane-bound TNF was used as a substrate. The enzyme reaction was carried out by adding 1.8 μL of a solution of the test substance to 90 μL of a fluorescent synthetic substrate prepared with an assay buffer B (50 mM tris-hydrochloric acid buffer (pH 7.5) including 200 mM sodium chloride, 5 mM calcium chloride, 10 μM zinc sulfate, and 0.05% PLURONIC F-68), then mixing 90 μL of a TACE enzyme solution prepared with an assay buffer A (50 mM tris-hydrochloric acid buffer (pH 7.5) including 200 mM sodium chloride, 5 mM calcium chloride, 10 μM zinc sulfate, and 2 mg/mL bovine serum albumin) and reacting at 37° C. for 1.5 hours. Enzyme activity was then determined by measuring with a fluorescence intensity meter (Labsystems, Fluoroskan Ascent) at an excitation wavelength of 355 nm and a measurement wavelength of 460 nm. The 50% inhibitory concentration (IC50) of the test substances was calculated by comparing enzyme activity in the presence and the absence of the test substance to determine the inhibition rate. Further, test substances having an IC50 strength of less than 100 nM were evaluated as “A”, and test substances having an IC50 strength of 100 nM or more were evaluated as “B”.

T1 sequence (P78536 215-824): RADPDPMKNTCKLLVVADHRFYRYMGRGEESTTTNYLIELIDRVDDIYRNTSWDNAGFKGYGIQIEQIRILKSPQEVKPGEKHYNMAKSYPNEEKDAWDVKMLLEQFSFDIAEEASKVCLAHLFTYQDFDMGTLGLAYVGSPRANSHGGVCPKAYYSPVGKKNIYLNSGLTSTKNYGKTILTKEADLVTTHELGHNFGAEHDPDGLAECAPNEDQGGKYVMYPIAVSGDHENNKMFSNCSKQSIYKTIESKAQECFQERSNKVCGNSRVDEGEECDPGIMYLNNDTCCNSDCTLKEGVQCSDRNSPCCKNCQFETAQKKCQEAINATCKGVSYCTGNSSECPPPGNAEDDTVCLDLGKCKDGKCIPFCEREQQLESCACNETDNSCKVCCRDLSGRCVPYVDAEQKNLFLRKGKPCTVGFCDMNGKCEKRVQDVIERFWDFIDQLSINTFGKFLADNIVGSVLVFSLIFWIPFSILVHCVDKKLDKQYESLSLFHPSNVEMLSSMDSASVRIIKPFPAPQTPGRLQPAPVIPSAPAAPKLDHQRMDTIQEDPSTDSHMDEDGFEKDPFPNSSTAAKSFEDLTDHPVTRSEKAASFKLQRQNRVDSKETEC

SMILES	IC50 [nM]
COc1ccc(OC)c(C2(Cn3cccc(C)c3=O)NC(=O)NC2=O)c1 (racemic) [Compound I-20, 5-(2,5-dimethoxyphenyl)-5-[(3-methyl-2-oxopyridin-1(2H)-yl)methyl]imidazolidine-2,4-dione]	< 100
COc1cc(F)ccc1C1(Cn2cccc(C)c2=O)NC(=O)NC1=O (racemic) [Compound I-21, 5-(4-fluoro-2-methoxyphenyl)-5-[(3-methyl-2-oxopyridin-1(2H)-yl)methyl]imidazolidine-2,4-dione]	< 100
Cc1cccn(CC2(c3ccc4occc4c3)NC(=O)NC2=O)c1=O (racemic) [Compound I-22, 5-(benzofuran-5-yl)-5-[(3-methyl-2-oxopyridin-1(2H)-yl)methyl]imidazolidine-2,4-dione]	< 100
Cc1cccn(CC2(c3ccc4sccc4c3)NC(=O)NC2=O)c1=O (racemic) [Compound I-23, 5-(benzo[b]thiophen-5-yl)-5-[(3-methyl-2-oxopyridin-1(2H)-yl)methyl]imidazolidine-2,4-dione]	< 100
COc1ccc(OC(F)(F)F)cc1C1(Cn2cccc(C)c2=O)NC(=O)NC1=O (racemic) [Compound I-24, 5-[2-methoxy-5-(trifluoromethoxy)phenyl]-5-[(3-methyl-2-oxopyridin-1(2H)-yl)methyl]imidazolidine-2,4-dione]	≥ 100
Cc1cccn(CC2(c3ccc(S(C)(=O)=O)cc3)NC(=O)NC2=O)c1=O (racemic) [Compound I-25, 5-[(3-methyl-2-oxopyridin-1(2H)-yl)methyl]-5-[4-(methylsulfonyl)phenyl]imidazolidine-2,4-dione]	< 100
Cc1cccn(CC2(c3ccc4c(c3)CCCO4)NC(=O)NC2=O)c1=O (racemic) [Compound I-26, 5-(chroman-6-yl)-5-[(3-methyl-2-oxopyridin-1(2H)-yl)methyl]imidazolidine-2,4-dione]	< 100
COc1ccc(Cl)cc1C1(Cn2cccc(C)c2=O)NC(=O)NC1=O (racemic) [Compound I-27, 5-(5-chloro-2-methoxyphenyl)-5-[(3-methyl-2-oxopyridin-1(2H)-yl)methyl]imidazolidine-2,4-dione]	< 100
Cc1cccn(CC2(c3cccc(F)c3)NC(=O)NC2=O)c1=O (racemic) [Compound I-28, 5-(3-fluorophenyl)-5-[(3-methyl-2-oxopyridin-1(2H)-yl)methyl]imidazolidine-2,4-dione]	< 100
Cc1cccn(CC2(c3cc(F)c(F)cc3F)NC(=O)NC2=O)c1=O (racemic) [Compound I-29, 5-[(3-methyl-2-oxopyridin-1(2H)-yl)methyl]-5-(2,4,5-trifluorophenyl)imidazolidine-2,4-dione]	< 100
Cc1cc(C2(Cn3cccc(C)c3=O)NC(=O)NC2=O)ccc1F (racemic) [Compound I-30, 5-(4-fluoro-3-methylphenyl)-5-[(3-methyl-2-oxopyridin-1(2H)-yl)methyl]imidazolidine-2,4-dione]	< 100
Cc1cccn(CC2(c3ccc(-c4ccncc4)cc3)NC(=O)NC2=O)c1=O (racemic) [Compound I-31, 5-[(3-methyl-2-oxopyridin-1(2H)-yl)methyl]-5-[4-(pyridin-4-yl)phenyl]imidazolidine-2,4-dione]	< 100
Cc1cccn(CC2(c3ccc(-c4cccnc4)cc3)NC(=O)NC2=O)c1=O (racemic) [Compound I-32, 5-[(3-methyl-2-oxopyridin-1(2H)-yl)methyl]-5-[4-(pyridin-3-yl)phenyl]imidazolidine-2,4-dione]	< 100
Cc1cccn(CC2(c3ccc(C#CC(C)(C)C)cc3)NC(=O)NC2=O)c1=O (racemic) [Compound I-33, 5-[4-(3,3-dimethylbut-1-yn-1-yl)phenyl]-5-[(3-methyl-2-oxopyridin-1(2H)-yl)methyl]imidazolidine-2,4-dione]	< 100
Cc1ccc(Oc2ccc(C3(Cn4cccc(C)c4=O)NC(=O)NC3=O)cc2)cc1 (racemic) [Compound I-34, 5-[(3-methyl-2-oxopyridin-1(2H)-yl)methyl]-5-[4-(p-tolyloxy)phenyl]imidazolidine-2,4-dione]	< 100

Second part, the molecule after the results:

IC50 [nM]	SMILES
< 100	Cc1cccn(CC2(c3ccccc3)NC(=O)NC2=O)c1=O (racemic) [Compound I-1, 5-[(3-methyl-2-oxopyridin-1(2H)-yl)methyl]-5-phenyl-imidazolidine-2,4-dione]
< 100	COc1ccc(C2(Cn3cccc(C)c3=O)NC(=O)NC2=O)cc1 (racemic) [Compound I-2, 5-(4-methoxyphenyl)-5-[(3-methyl-2-oxopyridin-1(2H)-yl)methyl]imidazolidine-2,4-dione]
< 100	Cc1cccn(CC2(c3ccc(C#N)cc3)NC(=O)NC2=O)c1=O (racemic) [Compound I-3, 4-{4-[(3-methyl-2-oxopyridin-1(2H)-yl)methyl]-2,5-dioxoimidazolidine-4-yl}benzonitrile]
< 100	COc1cccc(C2(Cn3cccc(C)c3=O)NC(=O)NC2=O)c1 (racemic) [Compound I-4, 5-(3-methoxyphenyl)-5-[(3-methyl-2-oxopyridin-1(2H)-yl)methyl]imidazolidine-2,4-dione]
< 100	Cc1cccn(CC2(c3ccsc3)NC(=O)NC2=O)c1=O (racemic) [Compound I-5, 5-[(3-methyl-2-oxopyridin-1(2H)-yl)methyl]-5-(thiophen-3-yl)imidazolidine-2,4-dione]
< 100	Cc1cccn(CC2(c3cc4ccccc4o3)NC(=O)NC2=O)c1=O (racemic) [Compound I-6, 5-(benzofuran-2-yl)-5-[(3-methyl-2-oxopyridin-1(2H)-yl)methyl]imidazolidine-2,4-dione]
< 100	Cc1cccn(CC2(c3ccccn3)NC(=O)NC2=O)c1=O (racemic) [Compound I-7, 5-[(3-methyl-2-oxopyridin-1(2H)-yl)methyl]-5-(pyridin-2-yl)imidazolidine-2,4-dione]
< 100	Cc1cccn(CC2(c3cccnc3)NC(=O)NC2=O)c1=O (racemic) [Compound I-8, 5-[(3-methyl-2-oxopyridin-1(2H)-yl)methyl]-5-(pyridin-3-yl)imidazolidine-2,4-dione]
< 100	Cc1cccn(CC2(c3ccc(Oc4ccccc4)cc3)NC(=O)NC2=O)c1=O (racemic) [Compound I-9, 5-[(3-methyl-2-oxopyridin-1(2H)-yl)methyl]-5-(4-phenoxyphenyl)imidazolidine-2,4-dione]
< 100	Cc1cccn(CC2(c3ccc(F)c(F)c3)NC(=O)NC2=O)c1=O (racemic) [Compound I-10, 5-(3,4-difluorophenyl)-5-[(3-methyl-2-oxopyridin-1(2H)-yl)methyl]imidazolidine-2,4-dione]
< 100	Cc1cccn(CC2(c3ccc(Br)cc3)NC(=O)NC2=O)c1=O (racemic) [Compound I-11, 5-(4-bromophenyl)-5-[(3-methyl-2-oxopyridin-1(2H)-yl)methyl]imidazolidine-2,4-dione]
< 100	COc1cc(C2(Cn3cccc(C)c3=O)NC(=O)NC2=O)ccc1F (racemic) [Compound I-12, 5-(4-fluoro-3-methoxyphenyl)-5-[(3-methyl-2-oxopyridin-1(2H)-yl)methyl]imidazolidine-2,4-dione]
< 100	COCOc1ccc(C2(Cn3cccc(C)c3=O)NC(=O)NC2=O)cc1 (racemic) [Compound I-13, 5-[4-(methoxymethoxy)phenyl]-5-[(3-methyl-2-oxopyridin-1(2H)-yl)methyl]imidazolidine-2,4-dione]
< 100	COc1ccc(C2(Cn3cccc(C)c3=O)NC(=O)NC2=O)cc1F (racemic) [Compound I-14, 5-(3-fluoro-4-methoxyphenyl)-5-[(3-methyl-2-oxopyridin-1(2H)-yl)methyl]imidazolidine-2,4-dione]
< 100	Cc1cccn(CC2(c3ccc(F)cc3)NC(=O)NC2=O)c1=O (racemic) [Compound I-15, 5-(4-fluorophenyl)-5-[(3-methyl-2-oxopyridin-1(2H)-yl)methyl]imidazolidine-2,4-dione]
< 100	COc1ccc(C2(Cn3cccc(C)c3=O)NC(=O)NC2=O)cc1OC (racemic) [Compound I-16, 5-(3,4-dimethoxyphenyl)-5-[(3-methyl-2-oxopyridin-1(2H)-yl)methyl]imidazolidine-2,4-dione]
< 100	Cc1cccn(CC2(c3ccc(C(C)(C)C)cc3)NC(=O)NC2=O)c1=O (racemic) [Compound I-17, 5-[4-(tert-butyl)phenyl]-5-[(3-methyl-2-oxopyridin-1(2H)-yl)methyl]imidazolidine-2,4-dione]
< 100	COc1ccc(C2(Cn3cccc(C)c3=O)NC(=O)NC2=O)c(OC)c1 (racemic) [Compound I-18, 5-(2,4-dimethoxyphenyl)-5-[(3-methyl-2-oxopyridin-1(2H)-yl)methyl]imidazolidine-2,4-dione]
< 100	Cc1cccn(CC2(c3cccc(C(F)(F)F)c3)NC(=O)NC2=O)c1=O (racemic) [Compound I-19]
